Paper PMC6496074, “The Evolution of Azole Resistance in Candida albicans Sterol 14α-Demethylase (CYP51) through Incremental Amino Acid Substitutions” (Antimicrobial Agents and Chemotherapy, 2019)
“And” between values parts separate entries of the source, which are not always exact repeats. Identical values can stand only once.

How the values were obtained:
Test in all cases: CYP51 reconstitution assay
Assay type in all cases: biochemical
[1] = target: T1, CaCYP51 G307S (Candida albicans, UniProt P10613, G307S)
T1 construct: made in house; host or cells: E. coli DH5α (pCWori+)
T1 sequence (P10613 whole entry, looked up, stated change not applied): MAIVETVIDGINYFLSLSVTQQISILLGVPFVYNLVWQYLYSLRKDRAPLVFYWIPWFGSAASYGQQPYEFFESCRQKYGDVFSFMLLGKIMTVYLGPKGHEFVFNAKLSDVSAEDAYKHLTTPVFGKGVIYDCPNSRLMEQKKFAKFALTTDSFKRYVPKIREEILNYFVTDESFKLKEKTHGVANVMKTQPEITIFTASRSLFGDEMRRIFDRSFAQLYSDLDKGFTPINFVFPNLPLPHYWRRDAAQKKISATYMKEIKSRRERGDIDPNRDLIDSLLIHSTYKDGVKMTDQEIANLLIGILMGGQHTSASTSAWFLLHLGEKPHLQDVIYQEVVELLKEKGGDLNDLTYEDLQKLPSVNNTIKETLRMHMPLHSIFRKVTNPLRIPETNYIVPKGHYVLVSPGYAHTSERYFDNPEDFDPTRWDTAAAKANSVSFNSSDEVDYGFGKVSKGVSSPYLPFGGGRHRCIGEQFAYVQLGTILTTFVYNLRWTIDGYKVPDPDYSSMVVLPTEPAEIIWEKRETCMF
Procedure: (§1) Azole antifungal agents were added in 2.5 μl dimethyl sulfoxide, followed by 10 min of incubation at 37°C prior to assay initiation with 4 mM β-NADPH-Na4. The samples were then shaken for 15 min at 37°C. Sterol metabolites were recovered by extraction with ethyl acetate, followed by derivatization with 0.1 ml N,O-bis(trimethylsilyl)trifluoroacetamide (BSTFA)–trimethylchlorosilane (TMCS) (99:1) and 0.3 ml anhydrous pyridine (2 h at 80°C), prior to analysis by gas chromatography-mass spectrometry (GC-MS) ([52]). IC50 determinations were performed in duplicate.

[2] = target: T2, CaCYP51 D278N+G464S (Candida albicans, UniProt P10613, D278N/G464S)
T2 construct: made in house; host or cells: E. coli DH5α (pCWori+)
Procedure: as §1

[3] = target: T3, CaCYP51 G448E (Candida albicans, UniProt P10613, G448E)
T3 construct: made in house; host or cells: E. coli DH5α (pCWori+)
T3 sequence (P10613 whole entry, looked up, stated change not applied): as above
Procedure: as §1

[4] = target: T4, CaCYP51 P230L (Candida albicans, UniProt P10613, P230L)
T4 construct: made in house; host or cells: E. coli DH5α (pCWori+)
Procedure: as §1

[5] = target: T5, CaCYP51 R467K (Candida albicans, UniProt P10613, R467K)
T5 construct: made in house; host or cells: E. coli DH5α (pCWori+)
Procedure: as §1

[6] = target: T6, CaCYP51 V488I (Candida albicans, UniProt P10613, V488I); conditions: mean ± SD, duplicate
T6 construct: made in house; host or cells: E. coli DH5α (pCWori+)
Procedure: as §1

[7] = target: T7, CaCYP51 G450E (Candida albicans, UniProt P10613, G450E)
T7 construct: made in house; host or cells: E. coli DH5α (pCWori+)
T7 sequence (P10613 whole entry, looked up, stated change not applied): as above
Procedure: as §1

[8] = target: T8, CaCYP51 Y132H (Candida albicans, UniProt P10613, Y132H); conditions: mean ± SD, duplicate
T8 construct: made in house; host or cells: E. coli DH5α (pCWori+)
Procedure: as §1

[9] = target: T9, CaCYP51 Wild type (Candida albicans, UniProt P10613); conditions: Wild type
T9 construct: made in house; host or cells: E. coli DH5α (pCWori+)
T9 sequence (P10613 whole entry, looked up, natural form): as the sequence (P10613 whole entry, looked up, stated change not applied) above
Procedure: as §1

[10] = target: T10, CaCYP51 V456I (Candida albicans, UniProt P10613, V456I)
T10 construct: made in house; host or cells: E. coli DH5α (pCWori+)
Procedure: as §1

[11] = target: T11, CaCYP51 I471T (Candida albicans, UniProt P10613, I471T)
T11 construct: made in house; host or cells: E. coli DH5α (pCWori+)
Procedure: as §1

[12] = target: T12, CaCYP51 Q474K (Candida albicans, UniProt P10613, Q474K)
T12 construct: made in house; host or cells: E. coli DH5α (pCWori+)
Procedure: as §1

[13] = target: T13, CaCYP51 S279F (Candida albicans, UniProt P10613, S279F)
T13 construct: made in house; host or cells: E. coli DH5α (pCWori+)
Procedure: as §1

[14] = target: T14, CaCYP51 F126V (Candida albicans, UniProt P10613, F126V)
T14 construct: made in house; host or cells: E. coli DH5α (pCWori+)
Procedure: as §1

[15] = target: T15, CaCYP51 F449Y (Candida albicans, UniProt P10613, F449Y)
T15 construct: made in house; host or cells: E. coli DH5α (pCWori+)
Procedure: as §1

[16] = target: T16, CaCYP51 Y257H (Candida albicans, UniProt P10613, Y257H)
T16 construct: made in house; host or cells: E. coli DH5α (pCWori+)
Procedure: as §1

[17] = target: T17, CaCYP51 S405F (Candida albicans, UniProt P10613, S405F)
T17 construct: made in house; host or cells: E. coli DH5α (pCWori+)
T17 sequence (P10613 whole entry, looked up, stated change not applied): as above
Procedure: as §1

[18] = target: T18, CaCYP51 K143R (Candida albicans, UniProt P10613, K143R); conditions: mean ± SD, duplicate
T18 construct: made in house; host or cells: E. coli DH5α (pCWori+)
Procedure: as §1

[19] = target: T19, CaCYP51 D278N (Candida albicans, UniProt P10613, D278N)
T19 construct: made in house; host or cells: E. coli DH5α (pCWori+)
Procedure: as §1

[20] = target: T20, CaCYP51 G307S+G450E (Candida albicans, UniProt P10613, G307S/G450E)
T20 construct: made in house; host or cells: E. coli DH5α (pCWori+)
Procedure: as §1

[21] = target: T21, CaCYP51 Y447H (Candida albicans, UniProt P10613, Y447H)
T21 construct: made in house; host or cells: E. coli DH5α (pCWori+)
T21 sequence (P10613 whole entry, looked up, stated change not applied): as above
Procedure: as §1

[22] = target: T22, CaCYP51 Y132F (Candida albicans, UniProt P10613, Y132F)
T22 construct: made in house; host or cells: E. coli DH5α (pCWori+)
Procedure: as §1

[23] = target: T23, CaCYP51 F145L (Candida albicans, UniProt P10613, F145L)
T23 construct: made in house; host or cells: E. coli DH5α (pCWori+)
Procedure: as §1

[24] = target: T24, CaCYP51 V437I (Candida albicans, UniProt P10613, V437I)
T24 construct: made in house; host or cells: E. coli DH5α (pCWori+)
T24 sequence (P10613 whole entry, looked up, stated change not applied): as above
Procedure: as §1

[25] = target: T25, CaCYP51 G464S (Candida albicans, UniProt P10613, G464S)
T25 construct: made in house; host or cells: E. coli DH5α (pCWori+)
Procedure: as §1

[26] = target: T26, CaCYP51 Y118A (Candida albicans, UniProt P10613, Y118A)
T26 construct: made in house; host or cells: E. coli DH5α (pCWori+)
Procedure: as §1

[27] = target: T27, CaCYP51 Y132H+K143R (Candida albicans, UniProt P10613, K143R/Y132H)
T27 construct: made in house; host or cells: E. coli DH5α (pCWori+)
T27 sequence (P10613 whole entry, looked up, stated change not applied): as above
Procedure: as §1

[28] = target: T28, CaCYP51 Y132F+K143R (Candida albicans, UniProt P10613, K143R/Y132F)
T28 construct: made in house; host or cells: E. coli DH5α (pCWori+)
T28 sequence (P10613 whole entry, looked up, stated change not applied): as above
Procedure: as §1

[29] = 0.25 h, 4 μM triazole, % of activity without triazole, read-out: Residual CYP51 activity (%) ± SD

`CCC(C)n1ncn(-c2ccc(N3CCN(c4ccc(OCC5COC(Cn6cncn6)(c6ccc(Cl)cc6Cl)O5)cc4)CC3)cc2)c1=O` (centres unmarked) [Itraconazole, itraconazole] showed a remaining activity at 4 µM [1, 29] of 0.53 ± 0.21%, an IC50 ([1]; mean ± SD, duplicate) of 225 ± 7 nM and a remaining activity at 4 µM [2, 29] of 3.19 ± 0.46%. For the same compound, the IC50 ([2]; mean ± SD, duplicate) was 403 ± 11 nM, the remaining activity at 4 µM [3, 29] was 1.75 ± 0.26% and the IC50 ([3]; mean ± SD, duplicate) was 238 ± 13 nM. It also gave a remaining activity at 4 µM [4, 29] of 0.06 ± 0.01%, an IC50 ([4]; mean ± SD, duplicate) of 265 ± 38 nM and a remaining activity at 4 µM [5, 29] of 0.45 ± 0.17%. It also gave an IC50 ([5]; mean ± SD, duplicate) of 235 ± 18 nM, an IC50 [6] of 449 ± 16 nM and a remaining activity at 4 µM [7, 29] of 7.66 ± 0.54%. The IC50 ([7]; mean ± SD, duplicate) was 458 ± 70 nM, the IC50 [8] was 150 ± 28 nM and the remaining activity at 4 µM [9, 29] was 0.03 ± 0.02%. For the same compound, the IC50 ([9]; mean ± SD, duplicate, read-out: IC50) was 390 nM and 389 nM, the remaining activity at 4 µM [10, 29] was 3.21 ± 0.07% and the IC50 ([10]; mean ± SD, duplicate) was 603 ± 2 nM. It also gave a remaining activity at 4 µM [11, 29] of 1.21 ± 0.01%, an IC50 ([11]; mean ± SD, duplicate) of 218 ± 2 nM and a remaining activity at 4 µM [12, 29] of 0.49 ± 0.04%. The IC50 ([12]; mean ± SD, duplicate) was 246 ± 6 nM, the remaining activity at 4 µM [13, 29] was 5.97 ± 0.35% and the IC50 ([13]; mean ± SD, duplicate) was 569 ± 121 nM. For the same compound, the remaining activity at 4 µM [14, 29] was 0.22 ± 0.05%, the IC50 ([14]; mean ± SD, duplicate) was 206 ± 9 nM and the remaining activity at 4 µM [15, 29] was 0.84 ± 0.57%. For the same compound, the IC50 ([15]; mean ± SD, duplicate) was 222 ± 11 nM, the remaining activity at 4 µM [16, 29] was 1.37 ± 0.28% and the IC50 ([16]; mean ± SD, duplicate) was 336 ± 14 nM. It also gave a remaining activity at 4 µM [17, 29] of 2.73 ± 0.13%, an IC50 ([17]; mean ± SD, duplicate) of 350 ± 19 nM and an IC50 [18] of 450 ± 16 nM. It also gave a remaining activity at 4 µM [19, 29] of 3 ± 0.19%, an IC50 ([19]; mean ± SD, duplicate) of 545 ± 44 nM and a remaining activity at 4 µM [20, 29] of 0.2 ± 0.04%. The IC50 ([20]; mean ± SD, duplicate) was 318 ± 17 nM, the remaining activity at 4 µM [21, 29] was 1.45 ± 0.06% and the IC50 ([21]; mean ± SD, duplicate) was 299 ± 39 nM. The remaining activity at 4 µM [22, 29] was 0.19 ± 0.04%, the IC50 ([22]; mean ± SD, duplicate) was 309 ± 3 nM and the remaining activity at 4 µM [23, 29] was 1.99 ± 0.04%. For the same compound, the IC50 ([23]; mean ± SD, duplicate) was 300 ± 13 nM, the remaining activity at 4 µM [24, 29] was 0.13 ± 0.02% and the IC50 ([24]; mean ± SD, duplicate) was 293 ± 22 nM. It also gave a remaining activity at 4 µM [25, 29] of 0.54 ± 0.11%, an IC50 ([25]; mean ± SD, duplicate) of 282 ± 6 nM and a remaining activity at 4 µM [26, 29] of 1.3 ± 0.59%. It also gave an IC50 ([26]; mean ± SD, duplicate) of 170 ± 16 nM, a remaining activity at 4 µM [27, 29] of 0.7 ± 0.03% and an IC50 ([27]; mean ± SD, duplicate) of 237 ± 7 nM. For the same compound, the IC50 [28] was 190 ± 2 nM and the remaining activity at 4 µM ([28]; 0.25 h, read-out: Residual CYP51 activity (%) ± SD) was 0.23 ± 0.13%.
